How the values were obtained:
ONGHEPA1 cells = assay: Global gene expression analysis (RNA-Seq) and target gene analysis; type: cell-based, mouse; conditions: TGF-β vs TGF-β+eupatilin, 24 hr
Experimental: For a mechanism for the therapeutic effect on fibrosis, the global gene expression of DMSO-treated ONGHEPA1 cells (a control group), ONGHEPA1 cells in which fibrosis was induced by TGF-β, and ONGHEPA1 cells treated with TGF-β and eupatilin was measured.
The cells were treated with DMSO, TGF-β or eupatilin for 24 hr, and total RNA was isolated to manufacture a library, after which about 10,000 expressed mRNA species in a total transcriptome of 30 Gb were analyzed using an Illumina High-seq sequencer.

[1] = Observation of toxic symptoms and death after administration; type: in vivo, C57BL/6J mice; conditions: 2 to 3 days after administration, nasal, bleomycin-treated mice
Experimental: Eupatilin was used by being dissolved in a DPBS buffer (containing 1% DMSO), and the amount of eupatilin that was administered was 1 mL/kg, and the dose for each individual was calculated based on the recent body weight thereof 12 days after the administration of bleomycin, eupatilin was forcibly nasally administered once a day (5 times a week) for 1 week using a micropipette.

COc1ccc(-c2cc(=O)c3c(O)c(OC)c(O)cc3o2)cc1OC [eupatilin, 2-(3,4-dimethoxyphenyl)-5,7-dihydroxy-6-methoxy-chromone]
Log2fc Latent transforming growth factor beta binding protein 2 (Ltbp2) (ONGHEPA1 cells): −infinite | Log2fc Latent transforming growth factor beta binding protein 4 (Ltbp4) (ONGHEPA1 cells): −infinite | Log2fc Leprecan 1 (Lepre1) (ONGHEPA1 cells): 1.75 | Log2fc Lethal giant larvae homolog 1 (Ligi1) (ONGHEPA1 cells): infinite | Log2fc Lysyl oxidase-like 2 (Loxl2) (ONGHEPA1 cells): 1.93 | Log2fc Microtubule-associated protein 4 (Map4) (ONGHEPA1 cells): −infinite | Log2fc Multiple coagulation factor deficiency 2 (Mcfd2) (ONGHEPA1 cells): −1.28 | Log2fc Natriuretic peptide receptor 3 (Npr3) (ONGHEPA1 cells): 2.82 | Log2fc Nischarin (Nisch) (ONGHEPA1 cells): infinite | Log2fc Olfactomedin 2 (Olfm2) (ONGHEPA1 cells): 1.9 | Log2fc Oxysterol binding protein-like 9 (Osbpl9) (ONGHEPA1 cells): −infinite | Log2fc Palladin, cytoskeletal associated protein (Palld) (ONGHEPA1 cells): infinite | Log2fc Periostin (Postn) (ONGHEPA1 cells): −4.92 | Log2fc Perlecan (Heparan sulfate proteoglycan2) (Hspg2) (ONGHEPA1 cells): infinite | Log2fc Pleckstrin and sec7 domain containing 3 (Psd3) (ONGHEPA1 cells): 1.43 | Log2fc Pleiotrophin (Ptn) (ONGHEPA1 cells): 2.06 | Log2fc Procollagen lysine, 2-oxoglutarate 5-dioxygenase 2 (Plod2) (ONGHEPA1 cells): −1.48 | Log2fc Procollagen-lysine, 2-oxoglutarate 5-dioxygenase 3 (Plod3) (ONGHEPA1 cells): −2.01 | Log2fc Procollagen-proline, 2-oxoglutarate 4-dioxygenase (proline 4-hydroxylase), alpha 1 polypeptide (P4ha1) (ONGHEPA1 cells): −1.81 | Log2fc Prosaposin (Psap) (ONGHEPA1 cells): infinite | Log2fc Prostate androgen-regulated mucin-like protein 1 (Parm1) (ONGHEPA1 cells): 1.57 | Log2fc Protein FAM 53B (Fam53b) (ONGHEPA1 cells): infinite | Log2fc Protein disulfide isomerase associated 6 (Pdia6) (ONGHEPA1 cells): 1.85 | Log2fc Ring finger protein 145 (Rnf145) (ONGHEPA1 cells): −infinite | Log2fc Septin2 (Sept2) (ONGHEPA1 cells): infinite | Log2fc Serin (or cysteine) peptidase inhibitor, clade F, member 1 (Serpinf1) (ONGHEPA1 cells): 1.99 | Log2fc Serine (or cysteine) peptidase inhibitor, clade E, member 1 (Serpine 1) (ONGHEPA1 cells): −1.78 | Log2fc Slit homolog 3 (Slit3) (ONGHEPA1 cells): 3.65 | Log2fc Spectrin alpha, erythrocytic 1 (Spta1) (ONGHEPA1 cells): 4.01 | Log2fc Spectrin beta, non-erythrocytic 1 (Sptbn1) (ONGHEPA1 cells): infinite | Log2fc Spectrin repeat containing nuclear envelope 2 (Syne2) (ONGHEPA1 cells): −infinite | Log2fc Surfeit 1 (SURF1) (ONGHEPA1 cells): −infinite | Log2fc Synaptopodin (Synpo) (ONGHEPA1 cells): −infinite | Log2fc TEA Domain Transcription factor 1 (TEAD1) (ONGHEPA1 cells): −infinite | Log2fc TLC domain-containing protein 2 (Tlcd2) (ONGHEPA1 cells): infinite | Log2fc Tankyrase, TRF1-interacting ankyrin-related ADP-ribose polymerase 2 (Tnks2) (ONGHEPA1 cells): −infinite | Log2fc Tenascin C (Tnc) (ONGHEPA1 cells): 5.1 | Log2fc Thrombospondin, type I domain containing 7A (Thsd7a) (ONGHEPA1 cells): 5.06 | Log2fc Thymoma viral proto-oncogene 1 (Akt1) (ONGHEPA1 cells): −infinite | Log2fc Tissue inhibitor of metalloproteinase 3 (Timp3) (ONGHEPA1 cells): infinite | Log2fc TraB domain containing 2B (Trabd2b) (ONGHEPA1 cells): 2.75 | Log2fc Transformation/transcription domain-associated protein (Trrap) (ONGHEPA1 cells): −infinite | Log2fc Transforming, acidic coiled-coil containing protein 2 (Tacc2) (ONGHEPA1 cells): infinite | Log2fc Tropomyosin 1, alpha (Tpm1) (ONGHEPA1 cells): infinite | Log2fc Tubulin-specific chaperone d (Tbcd) (ONGHEPA1 cells): 2.11 | Log2fc Ubiquitin-like modifier activating enzyme 1 (Uba1) (ONGHEPA1 cells): infinite | Log2fc Vinculin (Vcl) (ONGHEPA1 cells): infinite | Log2fc WNK lysine deficient protein kinase 1 (Wnk1) (ONGHEPA1 cells): −infinite | Log2fc Willians-Beuren syndrome chromosome region 17 homolog (Wbscr17) (ONGHEPA1 cells): −2.83 | Log2fc c-fos induced growth factor (Figf) (ONGHEPA1 cells): 2.49 | Log2fc rho/rac guanine nucleotide exchange factor (GEF) 2 (Arhgef2) (ONGHEPA1 cells): −infinite | Log2fc v-myc myelocytomatosis viral related oncogene, neuroblastoma derived (Mycn) (ONGHEPA1 cells): 2.05 | toxic symptoms and occurrence of death [1]: no particularly abnormal symptoms were observed

From patent publication US10744114B2, “Use of eupatilin as pharmaceutical composition for prevention and treatment of fibrosis using EMT inhibitory activity” (OSTEONEUROGEN INC., priority 2016, dated 2020)
